This note sets out measurements from patent publication US20250179023A1, “HOLOSYMMETRIC BIPHENYL DERIVATIVE, AND PREPARATION METHOD THEREFOR AND USE THEREOF” (Abbisko Therapeutics Co., Ltd., priority 2022, published 2025).

Some results are limits rather than exact numbers.

The subject of series [1] is Caco-2 cells.
Description: (§6) The permeability and the efflux ratio of the compounds of the examples of the present invention and the comparative compounds were evaluated using a Caco-2 cell model in this experiment. The specific process was as follows: • 1) The Caco-2 cell culture medium was modified Eagle's medium (MEM) containing 10% inactivated fetal bovine serum and 1% nonessential amino acids.
(§7) Working solutions were obtained by diluting with Hank's balanced salt solution (HBSS, Invitrogen) containing 25 mM HEPES (pH 7.4). The detection concentration of the test compound was 10 μM. This study was a two-way permeation experiment from the apical side to the basolateral side (A−B) and from the basolateral side to the apical side (B−A), and a 90-minute incubation at 37° C. was required. After the incubation, the samples diluted with buffer were detected by LC-MS/MS. The concentrations of the compounds were quantified using a standard curve. • 4) Apparent permeability coefficient Papp value (cm/s):
Another series can be described thus: in vitro. To be noted: human, Caco-2, pH 7.4.
The next series has as its target PD-1/PD-L1 interaction (Homo sapiens (Human), UniProt Q9NZQ7). As to the kind of experiment: PD1-PDL1 HTRF binding activity test. The settings on record: Cisbio PD-1/PD-L1 binding assay kit. As to the method:
The effect of compounds of the examples of the present invention on the PD-1/PD-L1 interaction was determined by the PD-1/PD-L1 binding assay kit from Cisbio (#64ICP01PEG or 64ICP01PEH).

A short description of series [2]: Pharmacokinetics in rats (exposure and oral availability). It is filed as in vivo. The settings on record: male, ICR, rat; for bioavailability: PO (5 mpk) vs IV (1 mpk), read-out: Oral availability (F %). The text has this: (§1) The purpose of this study is to study the pharmacokinetic behaviors of some compounds of the present invention, and administration routes were: single per oral administration (PO) or intravenous injection (IV) to ICR mice or rats.
(§2) The compounds used in this test were compounds of specific examples of the present invention and the comparative compounds listed.
ICR rats male N=3 original source: Shanghai Sippr-BK Laboratory Animal Co. Ltd.
(§3) The compounds were each dissolved in a corresponding vehicle, mixed well by shaking and subjected to ultrasonic treatment to obtain colorless clear solutions. 9 mice and 3 rats were orally administered with the solution after fasting overnight. The mice were dosed at 10 mg/kg (or 2 mg/kg by IV) and the rats were dosed at 5 mg/kg (or 1 mg/kg by IV).
(§4) With about 90 μL/time point, blood was drawn from the submaxillary vein, and heparin sodium was added for anticoagulation. The blood samples were placed onto the ice and centrifuged (centrifugation conditions: 8000 rpm, 6 min, 2-8° C.) within 1 hr to isolate the plasmas. The time points for blood sampling were at 0 hrs, 0.25 hrs, 0.5 hrs, 1 hr, 2 hrs, 4 hrs, 6 hrs, 8 hrs and 24 hrs after administration. The samples were stored in a refrigerator at −20° C.
(§5) 40 μL of plasma sample was added to 160 μL of cold acetonitrile containing an internal standard, and the mixture was vortexed for 3 min and centrifuged at 11,000 rpm for 5 min. 100 μL of the supernate was added to 100 μL of water, and 5 μL of the mixed solution was loaded for LC-MS/MS analysis. For comparative compounds 1, 3, 5, the prodrug compounds and corresponding prototype compounds 2, 4, 6 were all analyzed, and specific analysis results are shown in Table 4.

Series [3] deals with PD-1/PD-L1 interaction (Jurkat/NF-κB-luc/PD1 cells cocultured with Raji-PD-L1 cells) (Homo sapiens (Human), UniProt Q9NZQ7). The experiment in a line: Jurkat reporter gene cellular assay. It is filed as cell-based. The settings on record: NF-κB-luc reporter activation fold, OKT3 1 μg/mL, 6 hrs; read-out: Cell activity EC50. As to the method: The effect of compounds of the examples of the present invention on the PD-1/PD-L1 interaction expressed on cell surfaces and the related influence on T cell functions were determined by a Jurkat reporter gene cellular assay. Briefly, the reporter gene plasmid of NF-κB-luc and the plasmid of human PD-1 were transfected into Jurkat cells to establish a stably transfected cell line capable of stably expressing both PD-1 and NF-κB-Luc reporter genes; the expression level of PD-1 on the cell surface was confirmed by flow cytometry; and the expression of the reporter gene was confirmed via the response of the reporter gene stimulated by OKT-3 and Raji cells.
Chain of PD-1/PD-L1 interaction (Jurkat/NF-κB-luc/PD1 cells cocultured with Raji-PD-L1 cells) (Q9NZQ7 19-290): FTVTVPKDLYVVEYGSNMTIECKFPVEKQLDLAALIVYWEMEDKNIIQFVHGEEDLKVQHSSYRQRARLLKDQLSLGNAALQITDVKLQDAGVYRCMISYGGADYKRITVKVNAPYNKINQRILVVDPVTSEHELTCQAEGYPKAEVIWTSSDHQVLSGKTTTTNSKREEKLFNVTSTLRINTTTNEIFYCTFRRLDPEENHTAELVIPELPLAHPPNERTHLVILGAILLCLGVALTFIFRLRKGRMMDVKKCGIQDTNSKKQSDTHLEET
In addition, the plasmid of human PD-L1 was transfected into Raji cells to obtain a cell line capable of stably expressing PD-L1. Jurkat/NF-κB-luc/PD1 cells and Raji-PD-L1 cells were then cocultured and stimulated with OKT-3. On this basis, the compounds were added, and the enhancement of the signal pathway of T cell activation by the inhibitory effect of the compounds on the PD-1/PD-L1 interaction was evaluated by readings of reporter gene responses.

Series [4] can be described thus: Caco-2 membrane permeability test. To be noted: human, Caco-2, pH 7.4.
Description: as §6, §7
A short description of series [5]: Pharmacokinetics in mice (exposure and oral availability). The series is classed as in vivo. The settings on record: male, mouse, ICR mice; for bioavailability: PO (10 mpk) vs IV (2 mpk), read-out: Oral availability (F %).
From the text: as §1, §2
ICR mice male N=9 original source: Shanghai Sippr-BK Laboratory Animal Co. Ltd.
as §3, §4, §5

For series [6], the system named is Caco-2 cells. The experiment in a line: Caco-2 membrane permeability test. The settings on record: Caco-2, summary of Table 2.
Description: as §6, §7
[7] abbreviates: 5 mg/kg, PO (5 mpk), dosed compound detected in plasma.
The mark [8] stands for this setting: 10 mg/kg, PO (10 mpk), dosed compound detected in plasma.

Chain of PD-1/PD-L1 interaction (Q9NZQ7 19-238): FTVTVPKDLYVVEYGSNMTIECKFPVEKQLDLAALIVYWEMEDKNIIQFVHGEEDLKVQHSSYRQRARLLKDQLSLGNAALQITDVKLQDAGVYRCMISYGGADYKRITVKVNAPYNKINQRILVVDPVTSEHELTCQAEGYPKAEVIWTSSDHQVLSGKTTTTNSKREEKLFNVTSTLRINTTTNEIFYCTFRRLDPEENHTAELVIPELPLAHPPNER
Description for in vitro: as §6, §7

For the compound `CC[C@H]1OC(=O)[C@H](C)[C@@H](O[C@H]2C[C@@](C)(OC)[C@@H](O)[C@H](C)O2)[C@H](C)[C@@H](O[C@@H]2O[C@H](C)C[C@H](N(C)C)[C@H]2O)[C@](C)(O)C[C@@H](C)C(=O)[C@H](C)[C@@H](O)[C@]1(C)O` [Erythromycin, erythromycin], in the series on Caco-2 cells [1], the Evaluation of permeability entry is given as “High efflux”. Further, in “in vitro”, the Papp A→B at 90 min, 10 μM was found to be 0.2 ×10⁻⁶ cm/s; the Papp B→A at 90 min, 10 μM worked out at 21.6 ×10⁻⁶ cm/s; the efflux ratio at 90 min turned out to be 107.

In the case of `Cc1c(NC(=O)c2cc(C3CC3)c(CNC34CCC(C(=O)O)(CC3)CC4)cn2)cccc1-c1cccc(NC(=O)c2cc(C3CC3)c(CNC34CCC(C(=O)O)(CC3)CC4)cn2)c1C` [Example 1, 4-(((6-((3′-(5-(((4-carboxybicyclo[2.2.2]octan-1-yl)amino)methyl) -4-cyclopropylpicolinamido)-2,2′-dimethyl-[1,1′-biphenyl]-3-yl)carbamoyl)-4-cyclopropylpyridin-3-yl)methyl)amino)bicyclo[2.2.2]octane-1-carboxylic acid], the IC50 on PD-1/PD-L1 interaction amounted to 2.56 nM. Besides, the AUC(0-t) in series [2] (setting [7]) turned out to be 2220 ng·h/mL; in series [2] (plasma, 1 mg/kg, IV (1 mpk)), 2350 ng·h/mL; in series [5] (setting [8]), 8790 ng·h/mL; in series [5] (plasma, 2 mg/kg, IV (2 mpk)), 9000 ng·h/mL. In addition, the Cmax in series [2] (setting [7]) stood at 426 ng/mL; in series [2] (plasma, 1 mg/kg, IV (1 mpk)), 3540 ng/mL; in series [5] (setting [8]), 1910 ng/mL; in series [5] (plasma, 2 mg/kg, IV (2 mpk)), 4000 ng/mL. Further, the bioavailability in series [2] (plasma, 5 mg/kg) worked out at 18.9%; in series [5] (plasma, 10 mg/kg), 19.5%. For the same compound, the half-maximal effective concentration (EC50) in series [3] was 135 nM. For the same compound, the Papp A→B at 90 min, 10 μM in series [4] amounted to 2.46 ×10⁻⁶ cm/s. This compound also showed a basolateral-to-apical permeability (Papp B→A) at 90 min, 10 μM in series [4] of 16.5 ×10⁻⁶ cm/s. In addition, the efflux ratio at 90 min, 10 μM in series [4] was determined as 6.75.

On PD-1/PD-L1 interaction, `Cc1c(NC(=O)c2cc(C3CC3)c(CNC34CCC(C(=O)O)(CC3)C4)cn2)cccc1-c1cccc(NC(=O)c2cc(C3CC3)c(CNC34CCC(C(=O)O)(CC3)C4)cn2)c1C` [Example 2, 4,4′-((((((2,2′-dimethyl-[1,1′-biphenyl]-3,3′-diyl)bis(azanediyl))bis(carbonyl))bis (4-cyclopropylpyridine-6,3-diyl))bis(methylene))bis(azanediyl))bis(bicyclo[2.2.1]heptane-1-carboxylic acid)] returned an IC50 of 3.67 nM. Besides, in series [3], the EC50 was 151 nM.

In the case of `Cc1c(NC(=O)c2cc(C3CC3)c(CN(C)C34CCC(C(=O)O)(CC3)C4)cn2)cccc1-c1cccc(NC(=O)c2cc(C3CC3)c(CN(C)C34CCC(C(=O)O)(CC3)C4)cn2)c1C` [Example 3, 4,4′-((((((2,2′-dimethyl-[1,1′-biphenyl]-3,3′-diyl)bis(azanediyl))bis(carbonyl))bis(4-cyclopropylpyridine-6,3-diyl))bis(methylene))bis(methylazanediyl))bis(bicyclo[2.2.1]heptane-1-carboxylic acid)], at PD-1/PD-L1 interaction, the IC50 amounted to 4.62 nM. Besides, the EC50 in series [3] was 1380 nM.

Take `Cc1c(NC(=O)c2cc(C3CC3)c(CNCC34CCC(C(=O)O)(CC3)C4)cn2)cccc1-c1cccc(NC(=O)c2cc(C3CC3)c(CNCC34CCC(C(=O)O)(CC3)C4)cn2)c1C` [Example 4, 4,4′-(((((((2,2′-dimethyl-[1,1′-biphenyl]-3,3′-diyl)bis(azanediyl))bis(carbonyl))bis(4-cyclopropylpyridine-6,3-diyl))bis(methylene))bis(azanediyl))bis(methylene))bis(bicyclo[2.2.1]heptane-1-carboxylic acid)]: on PD-1/PD-L1 interaction, the IC50 was 1.46 nM. Besides, the AUC(0-t) came to 4840 ng·h/mL in series [2] (setting [7]); 2200 ng·h/mL in series [2] (plasma, 1 mg/kg, IV (1 mpk)); 17600 ng·h/mL in series [5] (setting [8]); 6110 ng·h/mL in series [5] (plasma, 2 mg/kg, IV (2 mpk)). The peak concentration (Cmax) in series [2] (setting [7]) was found to be 1980 ng/mL; in series [2] (plasma, 1 mg/kg, IV (1 mpk)) it was 1860 ng/mL; in series [5] (setting [8]) it was 4550 ng/mL; in series [5] (plasma, 2 mg/kg, IV (2 mpk)), 3520 ng/mL. Further, the bioavailability in series [2] (plasma, 5 mg/kg) is 44%; in series [5] (plasma, 10 mg/kg), 57.5%. Besides, the 50% effective concentration (EC50) in series [3] was found to be 247 nM. In series [4], this compound displayed an apparent permeability from apical to basolateral (Papp A→B) at 90 min, 10 μM of 9.79 ×10⁻⁶ cm/s. This compound displayed a Papp B→A at 90 min, 10 μM in series [4] of 21.7 ×10⁻⁶ cm/s. For the same compound, in series [4], the efflux ratio at 90 min, 10 μM amounted to 2.21.

For the compound `COCCc1ccc(OCC(O)CNC(C)C)cc1` (centres unmarked) [Metoprolol, metoprolol], the Evaluation of permeability result with Caco-2 cells [1] is listed as “High”. Moreover, in “in vitro”, the Papp A→B at 90 min, 10 μM stood at 24.7 ×10⁻⁶ cm/s; the Papp B→A at 90 min, 10 μM stood at 31.1 ×10⁻⁶ cm/s; the efflux ratio at 90 min amounted to 1.26.

For the compound `COC(=O)[C@@H](CO)NCc1cnc(C(=O)Nc2cccc(-c3cccc(NC(=O)c4cc(C5CC5)c(CN[C@H](CO)C(=O)OC)cn4)c3C)c2C)cc1C1CC1` [compound 1, reference compound], the bioavailability in series [2] (plasma, 5 mg/kg) is 0%; in series [5] (plasma, 10 mg/kg) it was 0%. This compound yielded a Papp A→B at 90 min, 10 μM in series [4] of less than 2.28 ×10⁻⁶ cm/s. For the same compound, the Papp B→A at 90 min, 10 μM in series [4] is less than 1.85 ×10⁻⁶ cm/s.

`Cc1c(NC(=O)c2cc(C3CC3)c(CN[C@H](CO)C(=O)O)cn2)cccc1-c1cccc(NC(=O)c2cc(C3CC3)c(CN[C@H](CO)C(=O)O)cn2)c1C` [compound 2, reference compound]: in series [2] (plasma, 1 mg/kg, IV (1 mpk)), the AUC(0-t) was 7640 ng·h/mL and the Cmax came out at 13200 ng/mL. In series [4], the Papp A→B at 90 min, 10 μM stood at 0.67 ×10⁻⁶ cm/s; the Papp B→A at 90 min, 10 μM amounted to 0.36 ×10⁻⁶ cm/s; the efflux ratio at 90 min, 10 μM worked out at 0.53. Besides, in the series with Caco-2 cells [6], the “A−B membrane permeability (in words)” value was “poor membrane permeability”. In series [5] (plasma, 2 mg/kg, IV (2 mpk)), this compound displayed an AUC(0-t) of 2360 ng·h/mL and a Cmax of 5640 ng/mL. Besides, the bioavailability in series [5] (plasma, 10 mg/kg) amounted to 0%.

In the case of `CCOC(=O)CNCc1cnc(C(=O)Nc2cccc(-c3cccc(NC(=O)c4cc(C5CC5)c(CNCC(=O)OCC)cn4)c3C)c2C)cc1C1CC1` [compound 3, reference compound], the bioavailability in series [5] (plasma, 10 mg/kg) is 0%.

`Cc1c(NC(=O)c2cc(C3CC3)c(CNCC(=O)O)cn2)cccc1-c1cccc(NC(=O)c2cc(C3CC3)c(CNCC(=O)O)cn2)c1C` [compound 4]: in series [4], the Papp A→B at 90 min, 10 μM is less than 0.24 ×10⁻⁶ cm/s and the Papp B→A at 90 min, 10 μM turned out to be 0.98 ×10⁻⁶ cm/s. Further, the “A−B membrane permeability (in words)” value with Caco-2 cells [6] was “poor membrane permeability”.

Consider `COC(=O)[C@H]1CCN(Cc2cnc(C(=O)Nc3cccc(-c4cccc(NC(=O)c5cc(C6CC6)c(CN6CC[C@H](C(=O)OC)C6)cn5)c4C)c3C)cc2C2CC2)C1` [compound 5], for which, in series [4], the apparent permeability from apical to basolateral (Papp A→B) at 90 min, 10 μM is less than 1.79 ×10⁻⁶ cm/s and the Papp B→A at 90 min, 10 μM is less than 0.65 ×10⁻⁶ cm/s. Further, the concentration in series [5] (setting [8]) peaked (Cmax) at 30.4 ng/mL.

Consider `Cc1c(NC(=O)c2cc(C3CC3)c(CN3CC[C@H](C(=O)O)C3)cn2)cccc1-c1cccc(NC(=O)c2cc(C3CC3)c(CN3CC[C@H](C(=O)O)C3)cn2)c1C` [compound 6], for which, in series [4], the Papp A→B at 90 min, 10 μM amounted to 0.34 ×10⁻⁶ cm/s; the Papp B→A at 90 min, 10 μM is 5.51 ×10⁻⁶ cm/s; the efflux ratio at 90 min, 10 μM turned out to be 16.3. Further, the “A−B membrane permeability (in words)” value in the series with Caco-2 cells [6] is on record as “poor membrane permeability”. In series [5] (setting [8]), this compound gave an AUC(0-t) of 147 ng·h/mL and a Cmax of 46.2 ng/mL.
